Experimental findings from patent publication US20050136445A1, “Recombinant DNA vector, recombinant bio-luminescent bacterium and method for detecting bio-inhibitory substances using same” (Industrial Technology Research Institute, priority 2003, published 2005) are described below.

This test has as its system recombinant luminescent bacteria, pLWY-fabG (in Serratia marcescens) and pLWY-sh1A (in Serratia marcescens). Nature of the test: Luminosity (RLU) of recombinant bio-luminescent bacteria after mixing with test sample. In kind it is cell-based. The conditions noted are these: 200 μl bacterial liquid + 20 μl test sample, react for 15 minutes, luminosity detected for 20 sec; expressed as percentage of purified water control (100%). The source says: The technique developed in this invention that allows speedy detection of bio-inhibitory substances in wastewater is based on the principle that such substance poses a negative effect on the luminescent ability of recombinant luminescent bacteria, pLWY-fabG (in Serratia marcescens) and pLWY-sh1A (in Serratia marcescens) as provided herein. The detailed process for detecting bio-inhibitory substances in wastewater using the foregoing recombinant bio-luminescent bacteria are described below: 1. Culture the constructed foregoing recombinant bio-luminescent bacteria for 18-24 hours (O.D. >2); 2. Dilute the bacterial liquid at 1:100 with fresh LB broth the next day; 3. Shake culture at 225 rpm under 30° C. for one hour; 4. Mix 200 μl of bacterial liquid with 20 μl of test sample; mix well and let them react for 15 minutes; and 5. Use luminometer Berthold Lumat LB9507 to detect luminosity for 20 sec and the results are shown in relative light unit (RLU).
To preclude environmental error, each batch of test samples must include purified water to be treated as a positive control with RLU set as 100% for a standard reference. Given that the RLU of negative control (LB broth) is 0, it was not measured. The test results of samples are expressed as a percentage of the positive control. In this test, the amount of bacterial liquid used was 200 μl and that of test sample was 20 μl. Therefore the concentration of test sample was diluted to 1/11 of the original liquid at the time of testing. The concentrations of samples shown in the table are the detected concentration.
For the compound `Oc1ccccc1` [phenol], the “luminosity (RLU value) of the recombinant bio-luminescent bacterium versus concentration of the bio-inhibitory substance” value is listed as “the higher is the phenol concentration, the lower is the RLU value”.

For the compound `CC#N` [acetonitrile], the “luminosity (RLU value) of the recombinant bio-luminescent bacterium versus concentration of the bio-inhibitory substance” value is “the higher is the acetonitrile concentration, the lower is the RLU value”.

Regarding `[Zn+2]` [zinc ion], the “luminosity (RLU value) of the recombinant bio-luminescent bacterium versus concentration of the bio-inhibitory substance” value is on record as “the higher is the zinc ion concentration, the lower is the RLU value”.
